Assay type in all cases: functional
Assay [1] relates to Cydia pomonella. Description: Insecticidal activity against Cydia pomonella (codling moth) at 20 mg/kg assessed as growth regulation measured as number of head capsules of larvae after 10 days of continuous exposure (reference value: 1.3 +/- 0.3%).
The subject of assay [2] is Cydia pomonella. Description: Insecticidal activity against Cydia pomonella (codling moth) at 2 mg/kg assessed as growth regulation measured as number of head capsules of larvae after 10 days of continuous exposure (reference value: 1.3 +/- 0.3%).
For assay [3], the system named is Cydia pomonella. Description: Insecticidal activity against Cydia pomonella (codling moth) at 2 mg/kg assessed as growth regulation measured as number of head capsules of larvae after 5 days of continuous exposure (reference value: 0.3 +/- 0.3%).
Assay [4] deals with Cydia pomonella. Kind of assay: Insecticidal activity against Cydia pomonella (codling moth) at 20 mg/kg assessed as growth regulation measured as number of head capsules of larvae after 5 days of continuous exposure (reference value: 0.3 +/- 0.3%).
The subject of assay [5] is Cydia pomonella. Description: Antifeedant activity against Cydia pomonella (codling moth) at 20 mg/kg diet topically measured after 10 days of continuous exposure (reference value: 30 +/-20.9%).
Assay [6] has as its system Cydia pomonella. Kind of assay: Antifeedant activity against Cydia pomonella (codling moth) at 2 mg/kg diet topically measured after 10 days of continuous exposure (reference value: 30 +/-20.9%).
Assay [7] deals with Cydia pomonella. Kind of assay: Antifeedant activity against Cydia pomonella (codling moth) at 20 mg/kg diet topically measured after 5 days of continuous exposure (reference value: 30 +/-20.9%).
Assay [8] concerns Cydia pomonella. Kind of assay: Antifeedant activity against Cydia pomonella (codling moth) at 2 mg/kg diet topically measured after 5 days of continuous exposure (reference value: 30 +/-20.9%).
Assay [9] concerns Cydia pomonella. Kind of assay: Insecticidal activity against Cydia pomonella (codling moth) assessed as mortality at 2 mg/kg diet topically measured after 10 days of continuous exposure (reference value: 43.3 +/- 26%). Particulars: topical, 240 h.
For assay [10], the system named is Cydia pomonella. Description: Insecticidal activity against Cydia pomonella (codling moth) assessed as mortality at 20 mg/kg diet topically measured after 10 days of continuous exposure (reference value: 43.3 +/- 26%). To be noted: topical, 240 h.
Assay [11] concerns Cydia pomonella. Kind of assay: Insecticidal activity against Cydia pomonella (codling moth) assessed as mortality at 20 mg/kg diet topically measured after 5 days of continuous exposure (reference value: 23.3 +/- 18.5%). Particulars: topical, 120 h.
For assay [12], the system named is Cydia pomonella. Kind of assay: Insecticidal activity against Cydia pomonella (codling moth) assessed as mortality at 2 mg/kg diet topically measured after 5 days of continuous exposure (reference value: 23.3 +/- 18.5%). To be noted: topical, 120 h.
Assay [13] concerns Cydia pomonella. Description: Insecticidal activity against Cydia pomonella (codling moth) at 80 mg/kg assessed as growth regulation measured as number of head capsules of larvae after 10 days of continuous exposure Rvb = (1.5 +/- 0.2%).
Assay [14] deals with Cydia pomonella. Kind of assay: Insecticidal activity against Cydia pomonella (codling moth) at 20 mg/kg assessed as growth regulation measured as number of head capsules of larvae after 10 days of continuous exposure Rvb = (1.5 +/- 0.2%).
The subject of assay [15] is Cydia pomonella. Description: Insecticidal activity against Cydia pomonella (codling moth) at 40 mg/kg assessed as growth regulation measured as number of head capsules of larvae after 10 days of continuous exposure Rvb = (1.5 +/- 0.2%).
The subject of assay [16] is Cydia pomonella. Kind of assay: Antifeedant activity against Cydia pomonella (codling moth) at 80 mg/kg diet topically measured after 10 days of continuous exposure (reference value: 6.7 +/- 6.7%).
For assay [17], the system named is Cydia pomonella. Kind of assay: Antifeedant activity against Cydia pomonella (codling moth) at 40 mg/kg diet topically measured after 10 days of continuous exposure (reference value: 6.7 +/- 6.7%).
For assay [18], the system named is Cydia pomonella. Description: Antifeedant activity against Cydia pomonella (codling moth) at 20 mg/kg diet topically measured after 10 days of continuous exposure (reference value: 6.7 +/- 6.7%).
Assay [19] has as its system Cydia pomonella. Kind of assay: Antifeedant activity against Cydia pomonella (codling moth) at 80 mg/kg diet topically measured after 5 days of continuous exposure (reference value: 6.7 +/- 6.7%).
In assay [20] the test system is Cydia pomonella. Description: Antifeedant activity against Cydia pomonella (codling moth) at 40 mg/kg diet topically measured after 5 days of continuous exposure (reference value: 6.7 +/- 6.7%).
Assay [21] deals with Cydia pomonella. Kind of assay: Antifeedant activity against Cydia pomonella (codling moth) at 20 mg/kg diet topically measured after 5 days of continuous exposure (reference value: 6.7 +/- 6.7%).
In assay [22] the test system is Cydia pomonella. Description: Insecticidal activity against Cydia pomonella (codling moth) assessed as mortality at 80 mg/kg diet topically measured after 10 days of continuous exposure (reference value: 3.3 +/- 3.3%). Particulars: topical, 240 h.
Assay [23] has as its system Cydia pomonella. Description: Insecticidal activity against Cydia pomonella (codling moth) assessed as mortality at 20 mg/kg diet topically measured after 10 days of continuous exposure (reference value: 3.3 +/- 3.3%). To be noted: topical, 240 h.
Assay [24] deals with Cydia pomonella. Kind of assay: Insecticidal activity against Cydia pomonella (codling moth) assessed as mortality at 40 mg/kg diet topically measured after 10 days of continuous exposure (reference value: 3.3 +/- 3.3%). Particulars: topical, 240 h.
In assay [25] the test system is Cydia pomonella. Kind of assay: Insecticidal activity against Cydia pomonella (codling moth) at 40 mg/kg assessed as growth regulation measured as number of head capsules of larvae after 5 days of continuous exposure (reference value: 0.2 +/- 0.2%).
The subject of assay [26] is Cydia pomonella. Description: Insecticidal activity against Cydia pomonella (codling moth) at 20 mg/kg assessed as growth regulation measured as number of head capsules of larvae after 5 days of continuous exposure (reference value: 0.2 +/- 0.2%).
Assay [27] deals with Cydia pomonella. Kind of assay: Insecticidal activity against Cydia pomonella (codling moth) assessed as mortality at 80 mg/kg diet topically measured after 5 days of continuous exposure (reference value: 0%). To be noted: topical, 120 h.
Assay [28] relates to Cydia pomonella. Kind of assay: Insecticidal activity against Cydia pomonella (codling moth) assessed as mortality at 40 mg/kg diet topically measured after 5 days of continuous exposure (reference value: 0%). To be noted: topical, 120 h.
Assay [29] deals with Cydia pomonella. Kind of assay: Insecticidal activity against Cydia pomonella (codling moth) assessed as mortality at 20 mg/kg diet topically measured after 5 days of continuous exposure (reference value: 0%). Particulars: topical, 120 h.
Assay [30] has as its system Cydia pomonella. Description: Insecticidal activity against Cydia pomonella (codling moth) at 80 mg/kg assessed as growth regulation measured as number of head capsules of larvae after 5 days of continuous exposure (reference value: 0.2 +/- 0.2%).

Molecules are shown by their SMILES.

The mortality is the share of the test organisms that died.

As for `C/C=C(\C)C(=O)O[C@H]1C[C@@H](OC(C)=O)[C@@]2(C(=O)OC)CO[C@H]3[C@@H](O)[C@@](C)([C@]45O[C@@]4(C)[C@@H]4C[C@H]5O[C@@H]5OC=C[C@@]54O)[C@H]4[C@]1(CO[C@]4(O)C(=O)OC)[C@@H]32` [AZADIRACHTIN A], the Activity is 0 in the assay with Cydia pomonella [1]; 0.3 with Cydia pomonella [2]; 0 in the assay with Cydia pomonella [3]; 0 with Cydia pomonella [4]; 100% in the assay with Cydia pomonella [5]; 70% in the assay on Cydia pomonella [6]. Further, the Activity with Cydia pomonella [7] was 100%; in the assay with Cydia pomonella [8] it was 76.7%. The mortality at 2 mg/kg was found to be 66.7% with Cydia pomonella [9] and 50% with Cydia pomonella [12]. Further, the mortality at 20 mg/kg with Cydia pomonella [10] and with Cydia pomonella [11] was 100% in each case.

With `COC(=O)[C@]1(C)CC[C@]2(C)CC[C@]3(C)C4=CC=C5C(=CC(=O)C(O)=C5C)[C@]4(C)CC[C@@]3(C)[C@@H]2C1` [PRISTIMERIN], the Activity with Cydia pomonella [13] is 0; in the assay on Cydia pomonella [14], 0; in the assay with Cydia pomonella [15] it was 0; with Cydia pomonella [16] it was 90%; in the assay with Cydia pomonella [17], 83.3%; in the assay on Cydia pomonella [18], 93.3%. The Activity amounted to 90% in the assay with Cydia pomonella [19]; 83.3% with Cydia pomonella [20]; 96.7% with Cydia pomonella [21]; 0 in the assay on Cydia pomonella [25]; 0 in the assay on Cydia pomonella [26]; 0 in the assay with Cydia pomonella [30]. Further, the mortality at 80 mg/kg in the assay with Cydia pomonella [22] amounted to 100%; with Cydia pomonella [27], 90%. For the same compound, the mortality at 20 mg/kg was 60% in the assay with Cydia pomonella [23] and 20% in the assay on Cydia pomonella [29]. Moreover, the mortality at 40 mg/kg came out at 60% in the assay with Cydia pomonella [24] and 33.3% in the assay with Cydia pomonella [28].

Consider `CC1=C(O)C(=O)C=C2C1=CC=C1[C@@]2(C)CC[C@@]2(C)[C@@H]3C[C@@H](C)C(=O)C[C@]3(C)CC[C@]12C` [TINGENONE], for which the Activity is recorded as 0 in the assay with Cydia pomonella [13]; 3 with Cydia pomonella [14]; 1.4 with Cydia pomonella [15]; 93.3% in the assay with Cydia pomonella [16]; 3.3% in the assay with Cydia pomonella [17]; 0% in the assay with Cydia pomonella [18]. The Activity is on record as 100% in the assay with Cydia pomonella [19]; 10% in the assay on Cydia pomonella [20]; 0% with Cydia pomonella [21]; 0.3 in the assay on Cydia pomonella [25]; 0.7 in the assay with Cydia pomonella [26]; 0 in the assay on Cydia pomonella [30]. For the same compound, the mortality at 80 mg/kg with Cydia pomonella [22] turned out to be 23.3%; in the assay with Cydia pomonella [27] it was 13.3%. Besides, the mortality at 20 mg/kg in the assay with Cydia pomonella [23] and with Cydia pomonella [29] was 0% throughout. The results for the mortality at 40 mg/kg in the assay with Cydia pomonella [24] and in the assay on Cydia pomonella [28] were 10% and 3.3%, respectively.

The record behind these values is ChEMBL document CHEMBL3046339, “Insecticidal activity of Maytenus species (Celastraceae) nortriterpene quinone methides against codling moth, Cydia pomonella (L.) (Lepidoptera: tortricidae)” (2000).
